Experimental data published in PubChem BioAssay (NCI).
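A five-concentration, 48-hour dose response in 96-well plates underlies each endpoint, interpolated linearly between surrounding concentrations. GI50 = concentration required for 50% inhibition of growth. TGI denotes the concentration required for complete inhibition of growth.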

What was measured:
Assay in all cases: NCI-60 cell line screen, 48 h
[1] = system: A549 NSCLC
[2] = system: NCI-H23 lung
[3] = system: RPMI-8226 leukemia
[4] = system: A498 renal
[5] = system: 786-0 renal
[6] = system: UO-31 renal
[7] = system: SF-268 CNS
[8] = system: COLO 205 colon
[9] = system: NCI-H522 lung
[10] = system: HCT-116 colon
[11] = system: CCRF-CEM leukemia
[12] = system: K-562 leukemia
[13] = system: TK-10 renal
[14] = system: BT-549 breast
[15] = system: PC-3 prostate
[16] = system: EKVX NSCLC
[17] = system: SF-539 CNS
[18] = system: KM12 colon
[19] = system: CAKI-1 renal
[20] = system: UACC-62 melanoma
[21] = system: HL-60(TB) leukemia
[22] = system: IGROV1 ovarian
[23] = system: LOX IMVI melanoma
[24] = system: NCI-H226 lung
[25] = system: MDA-MB-231 breast
[26] = system: UACC-257 melanoma
[27] = system: OVCAR-4 ovarian
[28] = system: SK-MEL-2 melanoma
[29] = system: NCI-H460 lung
[30] = system: SF-295 CNS
[31] = system: SK-MEL-5 melanoma
[32] = system: M14 melanoma
[33] = system: MALME-3M melanoma
[34] = system: SN12C renal
[35] = system: SNB-19 CNS
[36] = system: DU-145 prostate
[37] = system: ACHN renal
[38] = system: OVCAR-5 ovarian
[39] = system: HOP-62 NSCLC
[40] = system: T-47D breast
[41] = system: SW-620 colon
[42] = system: SK-MEL-28 melanoma
[43] = system: NCI/ADR-RES ovarian
[44] = system: U251 CNS
[45] = system: MCF7 breast
[46] = system: OVCAR-8 ovarian
[47] = system: MDA-MB-435
[48] = system: HS 578T breast
[49] = system: SNB-75 CNS
[50] = system: RXF 393 renal
[51] = system: HT29 colon
[52] = system: HOP-92 NSCLC
[53] = system: SK-OV-3 ovarian
[54] = system: HCT-15 colon
[55] = system: HCC-2998 colon

C#Cc1nc(/C=C/C(=O)NO)cs1
GI50 [1]: 3.89 µM
TGI [1]: 22.5 µM
GI50 [2]: 1.3 µM
TGI [2]: 2.71 µM
GI50 [3]: 2.03 µM
TGI [3]: 7.65 µM
GI50 [4]: 1.8 µM
TGI [4]: 3.66 µM
GI50 [5]: 0.211 µM
TGI [5]: 0.427 µM
GI50 [6]: 0.182 µM
TGI [6]: 0.341 µM
GI50 [7]: 2.24 µM
TGI [7]: 5.08 µM
GI50 [8]: 4.17 µM
TGI [8]: 14.9 µM
GI50 [9]: 0.211 µM
TGI [9]: 0.44 µM
GI50 [10]: 1.56 µM
TGI [10]: 3.58 µM
GI50 [11]: 0.414 µM
TGI [11]: 1.95 µM
GI50 [12]: 3.01 µM
TGI [12]: 12.8 µM
GI50 [13]: 2.15 µM
TGI [13]: 8.1 µM
GI50 [14]: 2.63 µM
TGI [14]: 6.74 µM
GI50 [15]: 4.52 µM
TGI [15]: 23.7 µM
GI50 [16]: 2.25 µM
TGI [16]: 5.07 µM
GI50 [17]: 1.62 µM
TGI [17]: 3.12 µM
GI50 [18]: 3.51 µM
TGI [18]: 14.5 µM
GI50 [19]: 1.72 µM
TGI [19]: 3.24 µM
GI50 [20]: 2.14 µM
TGI [20]: 8.56 µM
GI50 [21]: 1.66 µM
TGI [21]: 4.09 µM
GI50 [22]: 0.501 µM
TGI [22]: 1.92 µM
GI50 [23]: 0.171 µM
TGI [23]: 0.326 µM
GI50 [24]: 10.4 µM
TGI [24]: 36.6 µM
GI50 [25]: 2.88 µM
TGI [25]: 7.82 µM
GI50 [26]: 1.55 µM
TGI [26]: 11 µM
GI50 [27]: 1.91 µM
TGI [27]: 4.28 µM
GI50 [28]: 4.58 µM
TGI [28]: 17.6 µM
GI50 [29]: 3.15 µM
TGI [29]: 19.4 µM
GI50 [30]: 1.91 µM
TGI [30]: 3.56 µM
GI50 [31]: 3.6 µM
TGI [31]: 14 µM
GI50 [32]: 3.15 µM
TGI [32]: 15 µM
GI50 [33]: 1.29 µM
TGI [33]: 2.85 µM
GI50 [34]: 5.89 µM
TGI [34]: 85 µM
GI50 [35]: 6.8 µM
TGI [35]: 24.3 µM
GI50 [36]: 2.01 µM
TGI [36]: 6.16 µM
GI50 [37]: 2.51 µM
TGI [37]: 7.1 µM
GI50 [38]: 2.34 µM
TGI [38]: 6.11 µM
GI50 [39]: 2.76 µM
TGI [39]: 15 µM
GI50 [40]: 2.17 µM
TGI [40]: 7.44 µM
GI50 [41]: 2.07 µM
TGI [41]: 5.08 µM
GI50 [42]: 4.02 µM
TGI [42]: 33.7 µM
GI50 [43]: 1.15 µM
TGI [43]: 34.1 µM
GI50 [44]: 2.44 µM
TGI [44]: 6.84 µM
GI50 [45]: 3.27 µM
TGI [45]: 19.6 µM
GI50 [46]: 2.24 µM
TGI [46]: 11.5 µM
GI50 [47]: 3.7 µM
TGI [47]: 15.9 µM
GI50 [48]: 2.04 µM
TGI [48]: 7.62 µM
GI50 [49]: 1.11 µM
TGI [49]: 2.56 µM
GI50 [50]: 1.25 µM
TGI [50]: 2.91 µM
GI50 [51]: 2.34 µM
TGI [51]: 5.7 µM
GI50 [52]: 1.43 µM
TGI [52]: 3 µM
GI50 [53]: 3.32 µM
TGI [53]: 13.4 µM
GI50 [54]: 2.98 µM
TGI [54]: 14.9 µM
GI50 [55]: 12.7 µM
TGI [55]: 26.1 µM
